# Test system: lymphocytes (fresh spleen cells)
# Experiment: Lymphocyte proliferation assay (ConA-induced spleen cells)
# Type: cell-based, rat
# Conditions: 48 hours; for Inhibition rate (%): lymphocyte proliferation induced with 5 μg/mL ConA, test concentration not given; for IC50: Rattus norvegicus, inhibition of lymphocyte proliferation, 5 μg/mL ConA
# Experimental: Lymphocytotoxicity test: rats were euthanized by spinal dislocation method, their spleens were aseptically removed and ground to make a single cell suspension. After removing red blood cells with 2 mL of red blood cell lysis buffer, the cell concentration was adjusted to 2×10^6 cells/mL using RPMI-1640 medium containing 10% fetal bovine serum (FBS). Next, 100 μL of the 2×10^6 cells/mL cell suspension and 100 μL of the appropriate concentration of the tested compound were added to each well of a 96-well plate, and the plate was incubated at 37° C. with 5% CO2 for 48 hours. At the end of the incubation period, 10 μL of CCK8 was added to each well, and the plate was returned to the incubator for 5-7 hours. The OD450 value was then measured at 450 nm using an enzyme-linked immunosorbent assay reader.
# Lymphocyte proliferation assay: fresh spleen cells at a concentration of 2×10^6 cells/mL were incubated for 48 hours in an incubator maintained at 37° C. and 5% CO2 for 48 hours, and the culture medium was induced for cell proliferation with 5 μg/mL of ConA, and the appropriate concentration of the tested compound was added to test its inhibitory activity on lymphocyte proliferation. The test results of some compounds are shown in the table below and figures accompanying the application: […]
SMILES,Inhibition rate (%),IC50 [nM]
O=C(NC1CCC(C(F)(F)F)CC1)c1csc(-c2cnn3cccnc23)n1 (stereo not shown) [IA-20],42.49,
O=C(NC(CO)C(=O)O)c1csc(C(=O)c2c[nH]c3ccccc23)n1 (stereo not shown) [IIA-24],59.91,421 ± 19.9
O=C(NCc1ccccc1)c1csc(C(=O)c2c[nH]c3ccccc23)n1 [IIA-19],46.55,
O=C(OCc1cn(CCc2ccccc2)nn1)c1csc(C(=O)c2c[nH]c3ccccc23)n1 [IIB-1],45.65,
O=C(OCc1cn(CCCCCCO)nn1)c1csc(C(=O)c2c[nH]c3ccccc23)n1 [IIB-4],21.17,
O=C(c1nc(C(=O)N2CCC[C@H]2c2cccnc2)cs1)c1c[nH]c2ccccc12 [IIA-1],65.32,
CC1CCC2(OC1)OC1CC3C4CC=C5CC(NC(=O)c6csc(C(=O)c7c[nH]c8ccccc78)n6)CCC5(C)C4CCC3(C)C1C2C (stereo not shown) [IIA-10],23.57,
CC(C)=CCC/C(C)=C/CC/C(C)=C/COC(=O)c1csc(C(=O)c2c[nH]c3ccccc23)n1 [IIA-2],25.83,
CC(C)=CCC/C(C)=C/CNC(=O)c1csc(C(=O)c2c[nH]c3ccccc23)n1 [IIA-30],26.88,
O=C(NCc1cccnc1)c1csc(NC(=O)c2cnn3cccnc23)n1 [IA-2],65.17,439 ± 24.2
CC(C)=CCOC(=O)c1csc(-c2cnn3cccnc23)n1 [IA-4],28.23,438 ± 12.3
CC(C)=CCC/C(C)=C/COC(=O)c1csc(-c2cnn3cccnc23)n1 [IA-7],52.55,487 ± 18.3
O=C(NCCC(F)(F)F)c1csc(C(=O)c2c[nH]c3ccccc23)n1 [IIA-29],43.54,
O=C(c1nc(C(=O)N2C[C@H](O)C[C@H]2C(=O)O)cs1)c1c[nH]c2ccccc12 [IIA-23],58.56,439 ± 25.3
Cc1cnc2c(-c3nc(C(=O)NCCc4ccccn4)cs3)cnn2c1 [IA-25],37.24,
COC(=O)[C@@H]1C[C@@H](O)CN1C(=O)c1csc(-c2cnn3cccnc23)n1 [IA-15],30.78,
O=C(Nc1ccccc1)c1csc(-c2cnn3cccnc23)n1 [IA-6],40.69,
O=C(c1csc(-c2cnn3cccnc23)n1)N1CCC[C@H]1c1cccnc1 [IA-1],81.38,210 ± 8.87
O=C(c1csc(-c2cnn3cccnc23)n1)N1CCN(c2cccnc2)CC1 [IA-23],60.57,350 ± 17
CC(C)CCCC(C)C1CCC2C3CC=C4CC(OC(=O)c5csc(C(=O)c6c[nH]c7ccccc67)n5)CCC4(C)C3CCC12C (stereo not shown) [IIA-8],50.45,
CC(C)=CCC/C(C)=C/COC(=O)c1csc(C(=O)c2c[nH]c3ccccc23)n1 [IIA-5],57.51,
COC(=O)C1CCCCN1C(=O)c1csc(C(=O)c2c[nH]c3ccccc23)n1 (stereo not shown) [IIA-25],49.85,
O=C(NCc1ccccc1)c1csc(-c2cnn3cccnc23)n1 [IA-11],70.42,263 ± 13.4
O=C(NCc1ccc(Cl)cc1Cl)c1csc(-c2cnn3cccnc23)n1 [IA-8],43.39,
"C=CC[C@@H]1/C=C(\C)C[C@H](C)C[C@H](OC)[C@H]2O[C@@](O)(C(=O)C(=O)N3CCCC[C@H]3C(=O)O[C@H](/C(C)=C/[C@@H]3CC[C@@H](O)[C@H](OC)C3)[C@H](C)[C@@H](O)CC1=O)[C@H](C)C[C@@H]2OC [Tacrolimus, reference compound]",57.54,504 ± 16.2
O=C(c1csc(-c2cnn3cccnc23)n1)N1CCC[C@H]1c1ccncc1 [IA-13],59.01,410 ± 33.5
"COC(=O)c1csc(C(=O)c2c[nH]c3ccccc23)n1 [ITE, reference compound]",57.96,
O=C(NCCc1cccnc1)c1csc(-c2cnn3cccnc23)n1 [IA-12],83.63,236 ± 17.2
"Nc1ccccc1C(=O)CC(N)C(=O)O (stereo not shown) [KYN, kynurenine, reference compound]",51.65,

# From patent publication US20230391783A1, “COMPOUND CONTAINING 2,4-THIAZOLE RING, PREPARATION METHOD THEREFOR, AND APPLICATION THEREOF” (SHANDONG UNIVERSITY, priority 2021, published 2023)
